What was measured:
[1] = target: Neuronal acetylcholine receptor subunit alpha-7 (Rattus norvegicus, UniProt Q05941); test: Displacement of [125I]-alpha-bungarotoxin from alpha7 nicotinic acetylcholine receptor in Wistar rat frontal cortex by gamma counting; type: tissue-based
Striatum = test: Biodistribution in Wistar rat striatum at 5 +/- 2 MBq, iv after 60 mins by gamma counting in presence of alpha7 nAChR antagonist methyllycaconitine; type: organism-based; settings: in vivo, 1 h
Brain = test: Biodistribution in Wistar rat brain at 5 +/- 2 MBq, iv after 60 mins by gamma counting; type: ADME, organism-based; settings: in vivo, 1 h
Hypothalamus = test: Biodistribution in Wistar rat hypothalamus at 5 +/- 2 MBq, iv after 60 mins by gamma counting in presence of alpha7 nAChR antagonist methyllycaconitine; type: organism-based; settings: in vivo, 1 h
Midbrain = test: Biodistribution in Wistar rat midbrain at 5 +/- 2 MBq, iv after 60 mins by gamma counting in presence of alpha7 nAChR antagonist methyllycaconitine; type: organism-based, Brain; settings: in vivo, 1 h
Cortex = test: Biodistribution in Wistar rat cortex at 5 +/- 2 MBq, iv after 60 mins by gamma counting in presence of alpha7 nAChR antagonist methyllycaconitine; type: organism-based; settings: in vivo, 1 h
Hippocampus = test: Biodistribution in Wistar rat hippocampus at 5 +/- 2 MBq, iv after 60 mins by gamma counting in presence of alpha7 nAChR antagonist methyllycaconitine; type: organism-based; settings: in vivo, 1 h
Cerebellum = test: Biodistribution in Wistar rat cerebellum at 5 +/- 2 MBq, iv after 60 mins by gamma counting in presence of alpha7 nAChR antagonist methyllycaconitine; type: organism-based; settings: in vivo, 1 h

Neuronal acetylcholine receptor subunit alpha-7, sequence (Q05941 whole entry): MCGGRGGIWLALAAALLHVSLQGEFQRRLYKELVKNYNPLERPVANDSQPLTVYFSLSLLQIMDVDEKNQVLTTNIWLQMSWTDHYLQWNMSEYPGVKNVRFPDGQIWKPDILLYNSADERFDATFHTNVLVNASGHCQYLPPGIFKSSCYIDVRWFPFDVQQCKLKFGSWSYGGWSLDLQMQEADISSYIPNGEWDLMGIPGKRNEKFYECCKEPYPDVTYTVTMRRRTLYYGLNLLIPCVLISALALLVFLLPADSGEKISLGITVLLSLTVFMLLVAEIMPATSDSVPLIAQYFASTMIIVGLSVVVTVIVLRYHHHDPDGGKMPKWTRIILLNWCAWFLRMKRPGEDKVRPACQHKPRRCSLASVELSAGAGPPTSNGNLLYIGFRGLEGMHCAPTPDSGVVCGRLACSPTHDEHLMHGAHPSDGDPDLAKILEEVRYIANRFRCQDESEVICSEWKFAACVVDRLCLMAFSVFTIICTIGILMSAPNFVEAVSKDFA

For `CN1[C@@H]2CC[C@H]1C[C@@H](NC(=O)c1ccc(Cl)cc1)C2`, the Ki [1] was greater than 1000 nM.
Compound `CN1[C@@H]2CC[C@H]1C[C@@H](NC(=O)c1cccs1)C2` has a Ki [1] greater than 1000 nM.
`CN1[C@@H]2CC[C@H]1C[C@@H](NC(=O)c1ccc(Br)s1)C2` showed a Ki [1] of 78 nM.
Work on `CN1[C@@H]2CC[C@H]1C[C@@H](NC(=O)c1ccc3sccc3c1)C2` yielded a Ki [1] of 108 nM.
Work on `CN1[C@@H]2CC[C@H]1C[C@@H](NC(=O)c1ccc3occc3c1)C2` yielded a Ki [1] of 133 nM.
`CN1[C@@H]2CC[C@H]1C[C@@H](NC(=O)c1ccc(-c3cccs3)s1)C2` was tested, and the Ki [1] was 12 nM.
With `CN1[C@@H]2CC[C@H]1C[C@@H](NC(=O)c1ccc(-c3ccco3)s1)C2` the Ki [1] was 14 nM.
For `O=C(N[C@H]1CN2CCC1CC2)c1ccc([18F])cc1`, the Drug uptake (Striatum) was “Not Active”, the Drug uptake (Brain) was “Active” and the Drug uptake (Hypothalamus) was “Not Active”. The Drug uptake (Midbrain) was “Not Active”, the Drug uptake (Cortex) was “Not Active” and the Drug uptake (Hippocampus) was “Not Active”. The Drug uptake (Cerebellum) was “Not Active”.
